Measurements as given in patent US6914045B2, “Glycopeptide antibiotics” (Wyeth Holdings Corporation, priority 2001, dated 2005).
Converted amounts (≈) assume the structure as drawn.

How the values were obtained:
Assay in all cases: in vitro antibacterial evaluation, MIC by broth dilution
Assay type in all cases: cell-based
[1] = tested on: Staphylococcus sp.; conditions: broth dilution, 18 hours at 35° C.
Method in brief: (§1)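 Broth dilution per NCCLS M7-A2 in Mueller-Hinton II medium, inoculum 5×10^5 CFU/mL, antibiotic range 64-0.06 μg/mL. MIC taken as lowest concentration inhibiting growth; Gram-positive panel includes recent clinical isolates resistant to methicillin, penicillin and/or vancomycin.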

[2] = tested on: Streptococcus sp.; conditions: broth dilution, 18 hours at 35° C.
Method in brief: as §1

[3] = tested on: Enterococcus sp.; conditions: broth dilution, 18 hours at 35° C.
Method in brief: as §1

[4] = tested on: Escherichia coli; conditions: 18 hours at 35° C.

MIC Coagulase Negative Staphylococcus (GC 4547) [1]: 2 µg/mL (≈ 1.31 µM)
MIC Coagulase Negative Staphylococcus (GC 4548) [1]: 1 µg/mL (≈ 0.657 µM)
MIC Coagulase Negative Staphylococcus (GC 4549) [1]: 2 µg/mL (≈ 1.31 µM)
MIC Coagulase Negative Staphylococcus (GC 4551) [1]: 2 µg/mL (≈ 1.31 µM)
MIC Coagulase Negative Staphylococcus (GC 6257) [1]: 2 µg/mL (≈ 1.31 µM)
MIC Staphylococcus aureus (ATCC 29213) [1]: 4 µg/mL (≈ 2.63 µM)
MIC Staphylococcus aureus (GC 1131) [1]: 4 µg/mL (≈ 2.63 µM)
MIC Staphylococcus aureus (GC 3051) [1]: 2 µg/mL (≈ 1.31 µM)
MIC Staphylococcus aureus (GC 3053) [1]: 4 µg/mL (≈ 2.63 µM)
MIC Staphylococcus aureus (GC 4541) [1]: 4 µg/mL (≈ 2.63 µM)
MIC Staphylococcus aureus (GC 4542) [1]: 4 µg/mL (≈ 2.63 µM)
MIC Staphylococcus aureus (GC 4544) [1]: 4 µg/mL (≈ 2.63 µM)
MIC Staphylococcus aureus (GC 4545) [1]: 4 µg/mL (≈ 2.63 µM)
MIC Staphylococcus aureus-SMITH (GC 4543) [1]: 2 µg/mL (≈ 1.31 µM)
MIC Staphylococcus aureus (ATCC 29213) ([1]; strain ATCC 29213): 4 µg/mL (≈ 2.63 µM)
MIC Staphylococcus aureus (GC 1131) ([1]; strain GC 1131): 4 µg/mL (≈ 2.63 µM)
MIC Staphylococcus aureus (GC 3051) ([1]; strain GC 3051): 2 µg/mL (≈ 1.31 µM)
MIC Staphylococcus aureus (GC 3053) ([1]; strain GC 3053): 4 µg/mL (≈ 2.63 µM)
MIC Staphylococcus aureus (GC 4541) ([1]; strain GC 4541): 4 µg/mL (≈ 2.63 µM)
MIC Staphylococcus aureus (GC 4542) ([1]; strain GC 4542): 4 µg/mL (≈ 2.63 µM)
MIC Staphylococcus aureus-SMITH (GC 4543) ([1]; strain GC 4543): 2 µg/mL (≈ 1.31 µM)
MIC Staphylococcus aureus (GC 4544) ([1]; strain GC 4544): 4 µg/mL (≈ 2.63 µM)
MIC Staphylococcus aureus (GC 4545) ([1]; strain GC 4545): 4 µg/mL (≈ 2.63 µM)
MIC Coagulase Negative Staphylococcus (GC 4547) ([1]; strain GC 4547): 2 µg/mL (≈ 1.31 µM)
MIC Coagulase Negative Staphylococcus (GC 4548) ([1]; strain GC 4548): 1 µg/mL (≈ 0.657 µM)
MIC Coagulase Negative Staphylococcus (GC 4549) ([1]; strain GC 4549): 2 µg/mL (≈ 1.31 µM)
MIC Coagulase Negative Staphylococcus (GC 4551) ([1]; strain GC 4551): 2 µg/mL (≈ 1.31 µM)
MIC Coagulase Negative Staphylococcus (GC 6257) ([1]; strain GC 6257): 2 µg/mL (≈ 1.31 µM)
MIC Streptococcus agalactiae (GC 4564) [2]: 1 µg/mL (≈ 0.657 µM)
MIC Streptococcus pneumoniae (ATCC 6301) [2]: 0.25 µg/mL (≈ 0.164 µM)
MIC Streptococcus pneumoniae (GC 1894) [2]: <0.06 µg/mL
MIC Streptococcus pneumoniae (GC 4565) [2]: 0.25 µg/mL (≈ 0.164 µM)
MIC Streptococcus pyogenes (GC 4563) [2]: 2 µg/mL (≈ 1.31 µM)
MIC Streptococcus pneumoniae (ATCC 6301) ([2]; inoculum 5×10^5 CFU/mL, strain ATCC 6301): 0.25 µg/mL (≈ 0.164 µM)
MIC Streptococcus pneumoniae (GC 1894) ([2]; inoculum 5×10^5 CFU/mL, strain GC 1894): <0.06 µg/mL
MIC Streptococcus pyogenes (GC 4563) ([2]; inoculum 5×10^5 CFU/mL, strain GC 4563): 2 µg/mL (≈ 1.31 µM)
MIC Streptococcus agalactiae (GC 4564) ([2]; inoculum 5×10^5 CFU/mL, strain GC 4564): 1 µg/mL (≈ 0.657 µM)
MIC Streptococcus pneumoniae (GC 4565) ([2]; inoculum 5×10^5 CFU/mL, strain GC 4565): 0.25 µg/mL (≈ 0.164 µM)
MIC Enterococcus avium (GC 4558) [3]: 8 µg/mL (≈ 5.26 µM)
MIC Enterococcus faecalis (ATCC 29212) [3]: 8 µg/mL (≈ 5.26 µM)
MIC Enterococcus faecalis (GC 2242) [3]: 8 µg/mL (≈ 5.26 µM)
MIC Enterococcus faecalis (GC 2691) [3]: 8 µg/mL (≈ 5.26 µM)
MIC Enterococcus faecalis (GC 3059) [3]: 8 µg/mL (≈ 5.26 µM)
MIC Enterococcus faecalis (GC 4552) [3]: 8 µg/mL (≈ 5.26 µM)
MIC Enterococcus faecalis (GC 4553) [3]: 8 µg/mL (≈ 5.26 µM)
MIC Enterococcus faecalis (GC 4554) [3]: 16 µg/mL (≈ 10.5 µM)
MIC Enterococcus faecalis (GC 6189) [3]: 8 µg/mL (≈ 5.26 µM)
MIC Enterococcus faecium (GC 2243) [3]: 8 µg/mL (≈ 5.26 µM)
MIC Enterococcus faecium (GC 4556) [3]: 8 µg/mL (≈ 5.26 µM)
MIC Enterococcus faecium (GC 4557) [3]: 4 µg/mL (≈ 2.63 µM)
MIC Enterococcus faecalis (ATCC 29212) ([3]; strain ATCC 29212): 8 µg/mL (≈ 5.26 µM)
MIC Enterococcus faecium (GC 2243) ([3]; strain GC 2243): 8 µg/mL (≈ 5.26 µM)
MIC Enterococcus faecalis (GC 4552) ([3]; strain GC 4552): 8 µg/mL (≈ 5.26 µM)
MIC Enterococcus faecalis (GC 4553) ([3]; strain GC 4553): 8 µg/mL (≈ 5.26 µM)
MIC Enterococcus faecalis (GC 4554) ([3]; strain GC 4554): 16 µg/mL (≈ 10.5 µM)
MIC Enterococcus faecium (GC 4556) ([3]; strain GC 4556): 8 µg/mL (≈ 5.26 µM)
MIC Enterococcus faecium (GC 4557) ([3]; strain GC 4557): 4 µg/mL (≈ 2.63 µM)
MIC Enterococcus avium (GC 4558) ([3]; strain GC 4558): 8 µg/mL (≈ 5.26 µM)
MIC Enterococcus faecalis (GC 6189) ([3]; strain GC 6189): 8 µg/mL (≈ 5.26 µM)
MIC Enterococcus faecalis (GC 2242) ([3]; inoculum 5×10^5 CFU/mL, strain GC 2242): 8 µg/mL (≈ 5.26 µM)
MIC Enterococcus faecalis (GC 2691) ([3]; inoculum 5×10^5 CFU/mL, strain GC 2691): 8 µg/mL (≈ 5.26 µM)
MIC Enterococcus faecalis (GC 3059) ([3]; inoculum 5×10^5 CFU/mL, strain GC 3059): 8 µg/mL (≈ 5.26 µM)
MIC Escherichia coli (ATCC 25922) [4]: >64 µg/mL
MIC Escherichia coli (GC 4559) [4]: >64 µg/mL
MIC Escherichia coli (GC 4560) [4]: 2 µg/mL (≈ 1.31 µM)
Compound: COc1ccc(COC2C(CO)OC(OC3C(CO)OC(Oc4ccc(CC5NC(=O)C(C(C)c6ccccc6)NC(=O)CNC(=O)C(CO)NC(=O)C(C(O)C6CNC(=N)N6C6OC(CO)C(O)C(O)C6O)NC(=O)C(C(O)C6CNC(=N)N6)NC5=O)cc4)C(O)C3O)C(O)C2O)cc1OCc1ccccc1 (stereo not shown) [Example 239a]
MIC Staphylococcus haemolyticus (GC 4546) [1]: 2 µg/mL (≈ 1.31 µM)
MIC Staphylococcus haemolyticus (GC 4546) ([1]; strain GC 4546): 2 µg/mL (≈ 1.31 µM)
